Measured values reported in patent US20240116985A1, “STAPLED PEPTIDES AND METHODS THEREOF” (priority 2020, published 2024).
Read-outs that look alike come from different tables or passages of the source.

Target: T1, full-length beta-Catenin (Uniprot ID P35222) (Homo sapiens, UniProt P35222)
T1 construct: 10 nM full-length beta-Catenin (Uniprot ID P35222)
T1 sequence (P35222 1-781): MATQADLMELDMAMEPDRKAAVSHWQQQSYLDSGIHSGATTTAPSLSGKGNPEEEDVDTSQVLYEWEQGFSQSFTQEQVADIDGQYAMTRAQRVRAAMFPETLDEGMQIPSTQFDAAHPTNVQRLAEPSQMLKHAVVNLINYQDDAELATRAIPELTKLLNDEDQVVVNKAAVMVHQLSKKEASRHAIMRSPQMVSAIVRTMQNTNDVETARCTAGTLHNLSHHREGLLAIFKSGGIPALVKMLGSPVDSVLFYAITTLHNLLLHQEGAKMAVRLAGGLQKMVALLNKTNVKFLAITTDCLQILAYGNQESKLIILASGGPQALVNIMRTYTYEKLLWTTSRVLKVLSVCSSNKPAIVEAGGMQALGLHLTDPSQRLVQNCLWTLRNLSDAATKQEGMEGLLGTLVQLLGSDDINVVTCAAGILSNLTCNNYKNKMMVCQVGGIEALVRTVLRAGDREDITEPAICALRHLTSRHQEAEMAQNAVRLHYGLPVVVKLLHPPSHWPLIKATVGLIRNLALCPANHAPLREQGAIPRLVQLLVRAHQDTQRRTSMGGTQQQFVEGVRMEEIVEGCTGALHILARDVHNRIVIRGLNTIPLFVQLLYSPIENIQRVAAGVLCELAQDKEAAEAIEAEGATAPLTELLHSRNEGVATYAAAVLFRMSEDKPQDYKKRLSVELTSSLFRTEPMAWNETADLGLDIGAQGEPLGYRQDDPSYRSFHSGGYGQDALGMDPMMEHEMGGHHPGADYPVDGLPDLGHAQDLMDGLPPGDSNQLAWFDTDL
Test: Fluorescence polarization IC50 (beta-catenin / 5FAM-TCF4 10-53 competition)
Assay type: binding
Details: fluorescence polarization

[1] = beta-catenin, read-out: FP EC50

| IC50 (read-out: beta-Catenin FP IC50) [nM] | IC50 [1] [nM] | SMILES |
| --- | --- | --- |
| 203 |  | CC(=O)N1CCC[C@]12CC=CCCCC1(CCCC=CCCCOC(=O)N3CC[C@@](C(=O)N[C@@H](Cc4ccsc4)C(=O)N[C@@H](Cc4cccc(F)c4F)C(=O)N[C@@H](CO)C(N)=O)(C3)NC(=O)[C@H](CC(C)C)NC(=O)[C@H](Cc3ccccc3)NC(=O)[C@H](C)NC(=O)[C@H](C)NC(=O)[C@H](CC(=O)O)NC(=O)[C@H](CC(=O)O)NC1=O)NC(=O)[C@H](CC(C)(C)C)NC(=O)[C@H](CC(=O)O)NC2=O (stereo partly drawn) [I-1426, Ac-PL3-Asp-Npg-B5-Asp-Asp-Ala-Ala-Phe-Leu-PyrS2-3Thi-23FF-Ser-NH2] |
| 33 |  | CC(=O)N1CCC[C@]12CC=CCCCC1(CCCC=CCCCOC(=O)N3CC[C@@](C(=O)N[C@@H](Cc4ccsc4)C(=O)N[C@@H](Cc4ccc(F)c(F)c4)C(=O)N[C@@H](CCC(N)=O)C(N)=O)(C3)NC(=O)[C@H](CC(C)C)NC(=O)[C@H](Cc3ccccc3)NC(=O)[C@H](C)NC(=O)[C@H](C)NC(=O)[C@H](CC(=O)O)NC(=O)[C@H](CC(=O)O)NC1=O)NC(=O)[C@H](CC(C)(C)C)NC(=O)[C@H](CC(=O)O)NC2=O (stereo partly drawn) [I-1427, Ac-PL3-Asp-Npg-B5-Asp-Asp-Ala-Ala-Phe-Leu-PyrS2-3Thi-34FF-Gln-NH2] |
| 41 |  | CC(=O)N1CCC[C@]12CC=CCCCC1(CCCC=CCCCOC(=O)N3CC[C@@](C(=O)N[C@@H](Cc4ccsc4)C(=O)N[C@@H](Cc4ccc(F)c(F)c4)C(=O)N[C@@H](CO)C(N)=O)(C3)NC(=O)[C@H](CC(C)C)NC(=O)[C@H](Cc3ccccc3)NC(=O)[C@H](C)NC(=O)[C@H](C)NC(=O)[C@H](CC(=O)O)NC(=O)[C@H](CC(=O)O)NC1=O)NC(=O)[C@H](CC(C)(C)C)NC(=O)[C@H](CC(=O)O)NC2=O (stereo partly drawn) [I-1428, Ac-PL3-Asp-Npg-B5-Asp-Asp-Ala-Ala-Phe-Leu-PyrS2-3Thi-34FF-Ser-NH2] |
| 71 |  | CC(=O)N1CCC[C@]12CC=CCCCC1(CCCC=CCCCOC(=O)N3CC[C@@](C(=O)N[C@@H](Cc4ccsc4)C(=O)N[C@@H](Cc4cn(C)c5ccccc45)C(=O)N[C@@H](CCC(N)=O)C(N)=O)(C3)NC(=O)[C@H](CC(C)C)NC(=O)[C@H](Cc3ccccc3)NC(=O)[C@H](C)NC(=O)[C@H](C)NC(=O)[C@H](CC(=O)O)NC(=O)[C@H](CC(=O)O)NC1=O)NC(=O)[C@H](CC(C)(C)C)NC(=O)[C@H](CC(=O)O)NC2=O (stereo partly drawn) [I-1433, Ac-PL3-Asp-Npg-B5-Asp-Asp-Ala-Ala-Phe-Leu-PyrS2-3Thi-1MeW-Gln-NH2] |
| 83 |  | CC(=O)N1CCC[C@]12CC=CCCCC1(CCCC=CCCCOC(=O)N3CC[C@@](C(=O)N[C@@H](Cc4ccsc4)C(=O)N[C@@H](Cc4cn(C)c5ccccc45)C(=O)N[C@@H](CO)C(N)=O)(C3)NC(=O)[C@H](CC(C)C)NC(=O)[C@H](Cc3ccccc3)NC(=O)[C@H](C)NC(=O)[C@H](C)NC(=O)[C@H](CC(=O)O)NC(=O)[C@H](CC(=O)O)NC1=O)NC(=O)[C@H](CC(C)(C)C)NC(=O)[C@H](CC(=O)O)NC2=O (stereo partly drawn) [I-1434, Ac-PL3-Asp-Npg-B5-Asp-Asp-Ala-Ala-Phe-Leu-PyrS2-3Thi-1MeW-Ser-NH2] |
| 90 |  | CC(=O)N1CCC[C@]12CC=CCCCC1(CCCC=CCCCOC(=O)N3CC[C@@](C(=O)N[C@@H](Cc4ccsc4)C(=O)N[C@@H](Cc4c[nH]c5cc(Cl)ccc45)C(=O)N[C@@H](CCC(N)=O)C(N)=O)(C3)NC(=O)[C@H](CC(C)C)NC(=O)[C@H](Cc3ccccc3)NC(=O)[C@H](C)NC(=O)[C@H](C)NC(=O)[C@H](CC(=O)O)NC(=O)[C@H](CC(=O)O)NC1=O)NC(=O)[C@H](CC(C)(C)C)NC(=O)[C@H](CC(=O)O)NC2=O (stereo partly drawn) [I-1435, Ac-PL3-Asp-Npg-B5-Asp-Asp-Ala-Ala-Phe-Leu-PyrS2-3Thi-6C1W-Gln-NH2] |
| 121 |  | CC(=O)N1CCC[C@]12CC=CCCCC1(CCCC=CCCCOC(=O)N3CC[C@@](C(=O)N[C@@H](Cc4ccsc4)C(=O)N[C@@H](Cc4c[nH]c5cc(Cl)ccc45)C(=O)N[C@@H](CO)C(N)=O)(C3)NC(=O)[C@H](CC(C)C)NC(=O)[C@H](Cc3ccccc3)NC(=O)[C@H](C)NC(=O)[C@H](C)NC(=O)[C@H](CC(=O)O)NC(=O)[C@H](CC(=O)O)NC1=O)NC(=O)[C@H](CC(C)(C)C)NC(=O)[C@H](CC(=O)O)NC2=O (stereo partly drawn) [I-1436, Ac-PL3-Asp-Npg-B5-Asp-Asp-Ala-Ala-Phe-Leu-PyrS2-3Thi-6C1W-Ser-NH2] |
| 327 |  | CC(=O)N1CCC[C@]12CC=CCCCC1(CCCC=CCCCOC(=O)N3CC[C@@](C(=O)N[C@@H](Cc4ccsc4)C(=O)N[C@@H](Cc4csc5ccccc45)C(=O)N[C@@H](CCC(N)=O)C(N)=O)(C3)NC(=O)[C@H](CC(C)C)NC(=O)[C@H](Cc3ccccc3)NC(=O)[C@H](C)NC(=O)[C@H](C)NC(=O)[C@H](Cc3ccccc3)NC(=O)[C@H](CC(=O)O)NC1=O)NC(=O)[C@H](CC(C)(C)C)NC(=O)[C@H](CC(=O)O)NC2=O (stereo partly drawn) [I-1441, Ac-PL3-Asp-Npg-B5-Asp-Phe-Ala-Ala-Phe-Leu-PyrS2-3Thi-BztA-Gln-NH2] |
| 6560 |  | CC(=O)N1CCC[C@]12CC=CCCCC1(CCCC=CCCCOC(=O)N3CC[C@@](C(=O)N[C@@H](Cc4ccsc4)C(=O)N[C@@H](Cc4csc5ccccc45)C(=O)N[C@@H](CCC(N)=O)C(N)=O)(C3)NC(=O)[C@H](CC(C)C)NC(=O)[C@H](Cc3ccccc3)NC(=O)[C@H](C)NC(=O)[C@H](C)NC(=O)[C@H](CC(C)C)NC(=O)[C@H](CC(=O)O)NC1=O)NC(=O)[C@H](CC(C)(C)C)NC(=O)[C@H](CC(=O)O)NC2=O (stereo partly drawn) [I-1444, Ac-PL3-Asp-Npg-B5-Asp-Leu-Ala-Ala-Phe-Leu-PyrS2-3Thi-BztA-Gln-NH2] |
| 20 | 20 | CC(=O)N1CCC[C@]12CC=CCCCC1(CCCC=CCCCOC(=O)N3CC[C@@](C(=O)N[C@@H](Cc4ccccc4Cl)C(=O)N[C@@H](Cc4csc5ccccc45)C(=O)N[C@@H](CCC(N)=O)C(N)=O)(C3)NC(=O)[C@H](CC(N)=O)NC(=O)[C@H](Cc3ccccc3)NC(=O)[C@H](C)NC(=O)[C@H](C)NC(=O)[C@H](CN(CC(=O)O)Cc3c(F)c(F)c(F)c(F)c3F)NC(=O)[C@H](CC(=O)O)NC1=O)NC(=O)[C@H](CC(C)(C)C)NC(=O)[C@H](CC(=O)O)NC2=O (stereo partly drawn) [I-1448, Ac-PL3-Asp-Npg-B5-Asp-[Pfbn]GA-Ala-Ala-Phe-Asn-PyrS2-2C1F-BztA-Gln-NH2] |
| 11 | 11 | CC(=O)N1CCC[C@]12CC=CCCCC1(CCCC=CCCCOC(=O)N3CC[C@@](C(=O)N[C@@H](Cc4ccccc4Cl)C(=O)N[C@@H](Cc4csc5ccccc45)C(=O)N[C@@H](CCC(N)=O)C(N)=O)(C3)NC(=O)[C@H](CC(N)=O)NC(=O)[C@H](Cc3ccccc3)NC(=O)[C@H](C)NC(=O)[C@H](C)NC(=O)[C@H](CN(CC(=O)O)Cc3c(F)c(F)c(F)c(F)c3F)NC(=O)[C@H](CC(=O)O)NC1=O)NC(=O)[C@H](CC(C)(C)C)NC(=O)[C@H](CC(=O)O)NC2=O (stereo partly drawn) [I-1450, Ac-PL3-Asp-Npg-B5-Asp-[Pfbn]GA-Ala-Ala-Phe-Asn-PyrS2-2C1F-BztA-Gln-NH2] |
| 66 | 66 | CC(=O)N1CCC[C@]12CC=CCCCC1(CCCC=CCCCCCC[C@@](C)(C(=O)N[C@@H](Cc3ccsc3)C(=O)N[C@@H](Cc3csc4ccccc34)C(=O)N[C@@H](CCC(N)=O)C(N)=O)NC(=O)[C@H](CC(N)=O)NC(=O)[C@H](Cc3ccccc3)NC(=O)[C@H](C)NC(=O)[C@H](C)NC(=O)[C@H](CN(CC(=O)O)C(C)C)NC(=O)[C@H](CC(=O)O)NC1=O)NC(=O)[C@H](CC(C)(C)C)NC(=O)[C@H](CC(=O)O)NC2=O (stereo partly drawn) [I-1452, Ac-PL3-Asp-Npg-B5-Asp-[iPr]GA-Ala-Ala-Phe-Asn-S8-3Thi-BztA-Gln-NH2] |
| 52 | 52 | CC(=O)N1CCC[C@]12CC=CCCCC1(CCCC=CCCCCCC[C@@](C)(C(=O)N[C@@H](Cc3ccsc3)C(=O)N[C@@H](Cc3csc4ccccc34)C(=O)N[C@@H](CCC(N)=O)C(N)=O)NC(=O)[C@H](CC(N)=O)NC(=O)[C@H](Cc3ccccc3)NC(=O)[C@H](C)NC(=O)[C@H](C)NC(=O)[C@H](CN(CC(=O)O)C(C)C)NC(=O)[C@H](CC(=O)O)NC1=O)NC(=O)[C@H](CC(C)(C)C)NC(=O)[C@H](CC(=O)O)NC2=O (stereo partly drawn) [I-1453, Ac-PL3-Asp-Npg-B5-Asp-[iPr]GA-Ala-Ala-Phe-Asn-S8-3Thi-BztA-Gln-NH2] |
| 5 |  | CC(=O)N1CCC[C@]12CC=CCCCC1(CCCC=CCCCOC(=O)N3CC[C@@](C(=O)N[C@@H](Cc4ccsc4)C(=O)N[C@@H](Cc4csc5ccccc45)C(=O)N[C@@H](Cc4c[nH]cn4)C(N)=O)(C3)NC(=O)[C@H](CCC(N)=O)NC(=O)[C@H](Cc3ccccc3)NC(=O)[C@H](C)NC(=O)[C@H](C)NC(=O)[C@H](CC(=O)O)NC(=O)[C@H](CC(=O)O)NC1=O)NC(=O)[C@H](CC(C)(C)C)NC(=O)[C@H](CC(=O)O)NC2=O (stereo partly drawn) [I-1459, Ac-PL3-Asp-Npg-B5-Asp-Asp-Ala-Ala-Phe-Gln-PyrS2-3Thi-BztA-His-NH2] |
